Source: US9586931B2 (Merck Sharp & Dohme Corp., priority 2012, dated 2017)

Biological target: T1, recombinant human GST-Syk (Homo sapiens, UniProt P43405)
T1 construct: purchased Carna Biosciences 08-176
Test: Homogeneous Time-Resolved Fluorescence (HTRF) assay for the recombinant human Syk enzyme
Type: biochemical
Conditions: recombinant human GST-Syk 5 pM, ATP 25 μM, 10-dose titration 10 μM to 0.508 nM; read-out: rhSYK Activity IC50
Summary of the method: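 GST-hSyk fusion protein phosphorylated a peptide for 45 min at room temperature. The reaction was quenched with 2 nM Eu-anti-phosphotyrosine antibody and 70 nM SA-APC in 15 mM Tris pH 7.5, 40 mM EDTA, 0.01% Tween 20. The HTRF signal was read after 30 min.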

| Compound | IC50 [nM] |
| --- | --- |
| Cc1cc(Nc2cc(C(F)(F)F)ccn2)nc(-c2cn(C(C)C(N)=O)nn2)c1 (stereo not drawn) [Example 1.25, 2-[4-(4-methyl-6-{[4-(trifluoromethyl)pyridin-2-yl]amino}pyridin-2-yl)-1H-1,2,3-triazol-1-yl]propanamide] | 8.8 |
| Cc1cc(Nc2cc(C(F)(F)F)ccn2)nc(-c2cn(C/C=C/C(N)=O)nn2)c1 [Example 1.26, (2E)-4-[4-(4-methyl-6-{[4-(trifluoromethyl)pyridin-2-yl]amino}pyridin-2-yl)-1H-1,2,3-triazol-1-yl]but-2-enamide] | 1110 |
| Cc1cc(Nc2cc(C(F)(F)F)ccn2)nc(-c2cn(C(C)C(=O)N[C@@H](CO)Cc3ccccc3)nn2)c1 (stereo partly drawn) [Example 1.27, N-[(1R)-1-benzyl-2-hydroxyethyl]-2-[4-(4-methyl-6-{[4-(trifluoromethyl)pyridin-2-yl]amino}pyridin-2-yl)-1H-1,2,3-triazol-1-yl]propanamide] | 102 |
| Cc1cc(Nc2cc(C(F)(F)F)ccn2)nc(-c2cn(C(C)C(=O)N3CCc4ccccc4C3)nn2)c1 (stereo not drawn) [Example 1.28, 6-{1-[2-(3,4-dihydroisoquinolin-2(1H)-yl)-1-methyl-2-oxoethyl]-1H-1,2,3-triazol-4-yl}-4-methyl-N-[4-(trifluoromethyl)pyridin-2-yl]pyridin-2-amine] | 645 |
| Cc1cc(Nc2cc(C(F)(F)F)ccn2)nc(-c2cn(C(C)C(=O)NCCc3c[nH]c4ccccc34)nn2)c1 (stereo not drawn) [Example 1.29] | 124 |
| Cc1cc(Nc2cc(C(F)(F)F)ccn2)nc(-c2cn(C(C)C(=O)NCCc3c[nH]c4ccc(OCc5ccccc5)cc34)nn2)c1 (stereo not drawn) [Example 1.30, N-{2-[5-(benzyloxy)-1H-indol-3-yl]ethyl}-2-[4-(4-methyl-6-{[4-(trifluoromethyl)pyridin-2-yl]amino}pyridin-2-yl)-1H-1,2,3-triazol-1-yl]propanamide] | 1620 |
| Cc1cc(Nc2cc(C(F)(F)F)ccn2)nc(-c2cn(C(C)C(=O)N3CCc4c([nH]c5ccccc45)C3)nn2)c1 (stereo not drawn) [Example 1.31, 4-methyl-6-{1-[1-methyl-2-oxo-2-(1,3,4,9-tetrahydro-2H-beta-carbolin-2-yl)ethyl]-1H-1,2,3-triazol-4-yl}-N-[4-(trifluoromethyl)pyridin-2-yl]pyridin-2-amine] | 320 |
| Cc1cc(Nc2cc(C(F)(F)F)ccn2)nc(-c2cn(C(C)C(=O)NCCc3ccc4ccccc4c3)nn2)c1 (stereo not drawn) [Example 1.32, 2-[4-(4-methyl-6-{[4-(trifluoromethyl)pyridin-2-yl]amino}pyridin-2-yl)-1H-1,2,3-triazol-1-yl]-N-(2-naphthalen-2-ylethyl)propanamide] | 357 |
| Cc1cc(Nc2cc(C(F)(F)F)ccn2)nc(-c2cn(C(C)C(=O)NCc3cccc4nsnc34)nn2)c1 (stereo not drawn) [Example 1.33, N-(2,1,3-benzothiadiazol-4-ylmethyl)-2-[4-(4-methyl-6-{[4-(trifluoromethyl)pyridin-2-yl]amino}pyridin-2-yl)-1H-1,2,3-triazol-1-yl]propanamide] | 325 |
| COc1cc2c(cc1OC)CN(C(=O)C(C)n1cc(-c3cc(C)cc(Nc4cc(C(F)(F)F)ccn4)n3)nn1)C(C)C2 (stereo not drawn) [Example 1.34, 6-{1-[2-(6,7-dimethoxy-3-methyl-3,4-dihydroisoquinolin-2(1H)-yl)-1-methyl-2-oxoethyl]-1H-1,2,3-triazol-4-yl}-4-methyl-N-[4-(trifluoromethyl)pyridin-2-yl]pyridin-2-amine] | 2700 |
| Cc1cc(Nc2cc(C(F)(F)F)ccn2)nc(-c2cn(C(C)C(=O)NC(C)c3cnn(-c4ccccc4F)c3)nn2)c1 (stereo not drawn) [Example 1.35, N-{1-[1-(2-fluorophenyl)-1H-pyrazol-4-yl]ethyl}-2-[4-(4-methyl-6-{[4-(trifluoromethyl)pyridin-2-yl]amino}pyridin-2-yl)-1H-1,2,3-triazol-1-yl]propanamide] | 171 |
| Cc1cc(Nc2cc(C(F)(F)F)ccn2)nc(-c2cn(C(C)C(=O)NCCc3cccc(Oc4ccccc4)c3)nn2)c1 (stereo not drawn) [Example 1.36, 2-[4-(4-methyl-6-{[4-(trifluoromethyl)pyridin-2-yl]amino}pyridin-2-yl)-1H-1,2,3-triazol-1-yl]-N-[2-(3-phenoxyphenyl)ethyl]propanamide] | 1460 |
| Cc1cc(Nc2cc(C(F)(F)F)ccn2)nc(-c2cn(C(C)C(=O)NCc3cc(-c4ccco4)on3)nn2)c1 (stereo not drawn) [Example 1.37, N-[(5-furan-2-ylisoxazol-3-yl)methyl]-2-[4-(4-methyl-6-{[4-(trifluoromethyl)pyridin-2-yl]amino}pyridin-2-yl)-1H-1,2,3-triazol-1-yl]propanamide] | 33.9 |
| COc1ccc(OC)c(C(O)C(C)NC(=O)C(C)n2cc(-c3cc(C)cc(Nc4cc(C(F)(F)F)ccn4)n3)nn2)c1 (stereo not drawn) [Example 1.38, N-[2-(2,5-dimethoxyphenyl)-2-hydroxy-1-methylethyl]-2-[4-(4-methyl-6-{[4-(trifluoromethyl)pyridin-2-yl]amino}pyridin-2-yl)-1H-1,2,3-triazol-1-yl]propanamide] | 635 |
| Cc1cc(Nc2cc(C(F)(F)F)ccn2)nc(-c2cn(C(C)C(=O)N3CCc4onc(-c5ccc(F)cc5)c4C3)nn2)c1 (stereo not drawn) [Example 1.39, 6-(1-{2-[3-(4-fluorophenyl)-6,7-dihydroisoxazolo[4,5-c]pyridin-5(4H)-yl]-1-methyl-2-oxoethyl}-1H-1,2,3-triazol-4-yl)-4-methyl-N-[4-(trifluoromethyl)pyridin-2-yl]pyridin-2-amine] | 367 |
| Cc1cc(Nc2cc(C(F)(F)F)ccn2)nc(-c2cn(C(C)C(=O)N[C@H]3C[C@@H]3c3ccccc3)nn2)c1 (stereo partly drawn) [Example 1.40, 2-[4-(4-methyl-6-{[4-(trifluoromethyl)pyridin-2-yl]amino}pyridin-2-yl)-1H-1,2,3-triazol-1-yl]-N-[(1S,2R)-2-phenylcyclopropyl]propanamide] | 118 |
| Cc1cc(Nc2cc(C(F)(F)F)ccn2)nc(-c2cn(C(C)C(=O)N3CCc4[nH]c5c(Cl)cccc5c4C3)nn2)c1 (stereo not drawn) [Example 1.41, 6-{1-[2-(6-chloro-1,3,4,5-tetrahydro-2H-pyrido[4,3-b]indol-2-yl)-1-methyl-2-oxoethyl]-1H-1,2,3-triazol-4-yl}-4-methyl-N-[4-(trifluoromethyl)pyridin-2-yl]pyridin-2-amine] | 131 |
| Cc1cc(Nc2cc(C(F)(F)F)ccn2)nc(-c2cn(C(C)C(=O)NCCc3ccccc3Oc3ccccc3)nn2)c1 (stereo not drawn) [Example 1.42, 2-[4-(4-methyl-6-{[4-(trifluoromethyl)pyridin-2-yl]amino}pyridin-2-yl)-1H-1,2,3-triazol-1-yl]-N-[2-(2-phenoxyphenyl)ethyl]propanamide] | 912 |
| Cc1cc(Nc2cc(C(F)(F)F)ccn2)nc(-c2cn(C(C)C(=O)NCc3cc4ccc(F)cc4[nH]c3=O)nn2)c1 (stereo not drawn) [Example 1.43, N-[(7-fluoro-2-oxo-1,2-dihydroquinolin-3-yl)methyl]-2-[4-(4-methyl-6-{[4-(trifluoromethyl)pyridin-2-yl]amino}pyridin-2-yl)-1H-1,2,3-triazol-1-yl]propanamide] | 64.2 |
| Cc1cc(Nc2cc(C(F)(F)F)ccn2)nc(-c2cn(C(C)C(=O)NCCc3cccc4ccccc34)nn2)c1 (stereo not drawn) [Example 1.44, 2-[4-(4-methyl-6-{[4-(trifluoromethyl)pyridin-2-yl]amino}pyridin-2-yl)-1H-1,2,3-triazol-1-yl]-N-(2-naphthalen-1-ylethyl)propanamide] | 626 |
| COc1ccc(C2CN(C(=O)C(C)n3cc(-c4cc(C)cc(Nc5cc(C(F)(F)F)ccn5)n4)nn3)CCS2)cc1 (stereo not drawn) [Example 1.45, 6-(1-{2-[2-(4-methoxyphenyl)thiomorpholin-4-yl]-1-methyl-2-oxoethyl}-1H-1,2,3-triazol-4-yl)-4-methyl-N-[4-(trifluoromethyl)pyridin-2-yl]pyridin-2-amine] | 172 |
| Cc1cc(Nc2cc(C(F)(F)F)ccn2)nc(-c2cn(C(C)C(=O)NCCc3ccc(Oc4ccccc4)cc3)nn2)c1 (stereo not drawn) [Example 1.46, 2-[4-(4-methyl-6-{[4-(trifluoromethyl)pyridin-2-yl]amino}pyridin-2-yl)-1H-1,2,3-triazol-1-yl]-N-[2-(4-phenoxyphenyl)ethyl]propanamide] | 1400 |
| Cc1cc(Nc2cc(C(F)(F)F)ccn2)nc(-c2cn(C(C)C(=O)NCc3c(-c4ccccc4)noc3C)nn2)c1 (stereo not drawn) [Example 1.47, N-[(5-methyl-3-phenylisoxazol-4-yl)methyl]-2-[4-(4-methyl-6-{[4-(trifluoromethyl)pyridin-2-yl]amino}pyridin-2-yl)-1H-1,2,3-triazol-1-yl]propanamide] | 345 |
| COc1ccc2[nH]c3c(c2c1)CCN(C(=O)C(C)n1cc(-c2cc(C)cc(Nc4cc(C(F)(F)F)ccn4)n2)nn1)C3 (stereo not drawn) [Example 1.48, 6-{1-[2-(6-methoxy-1,3,4,9-tetrahydro-2H-beta-carbolin-2-yl)-1-methyl-2-oxoethyl]-1H-1,2,3-triazol-4-yl}-4-methyl-N-1.[4-(trifluoromethyl)pyridin-2-yl]pyridin-2-amine] | 257 |
| Cc1cc(Nc2cc(C(F)(F)F)ccn2)nc(-c2cn(C(C)C(=O)NCC3(c4ccc(F)cc4)CCOCC3)nn2)c1 (stereo not drawn) [Example 1.49, N-{[4-(4-fluorophenyl)tetrahydro-2H-pyran-4-yl]methyl}-2-[4-(4-methyl-6-{[4-(trifluoromethyl)pyridin-2-yl]amino}pyridin-2-yl)-1H-1,2,3-triazol-1-yl]propanamide] | 404 |
| Cc1cc(Nc2cc(C(F)(F)F)ccn2)nc(-c2cn(C(C)C(=O)N3CCN(Cc4ccccc4)C(c4ccccc4)C3)nn2)c1 (stereo not drawn) [Example 1.50, 6-{1-[2-(4-benzyl-3-phenylpiperazin-1-yl)-1-methyl-2-oxoethyl]-1H-1,2,3-triazol-4-yl}-4-methyl-N-[4-(trifluoromethyl)pyridin-2-yl]pyridin-2-amine] | 570 |
| Cc1cc(Nc2cc(C(F)(F)F)ccn2)nc(-c2cn(C(C)C(=O)NCCc3cn(C)c4ccccc34)nn2)c1 (stereo not drawn) [Example 1.51, N-[2-(1-methyl-1H-indol-3-yl)ethyl]-2-[4-(4-methyl-6-{[4-(trifluoromethyl)pyridin-2-yl]amino}pyridin-2-yl)-1H-1,2,3-triazol-1-yl]propanamide] | 186 |
